# Laboratory results: patent publication US10512631B2, “Chalcone compounds” (Beth Israel Deaconess Medical Center, Inc., priority 2015, dated 2019)
# What was measured:
# Type in all cases: cell-based
# PC3 [1] = assay: Cytoxicity / crystal violet staining, PC3; details: average of triplicates, % of apoptotic cells vs DMSO controls, N.A. = not active at 10 μM
# Protocol: (§1) PC3 (provided by Dr. Steven Balk's laboratory in Department of Medicine at Beth Israel Deaconess Medical Center), PANC02 and CRL2119 (provided by Dr. Pankaja Seth's laboratory in Department of Medicine at Beth Israel Deaconess Medical Center), A549 (ATCC) cell lines were cultured according to manufacturer's protocols. Briefly, PC3 were cultured in RPMI medium supplemented with 10% FBS (Atlanta). PANC-2, A549 and CRL2119 were cultured in DMEM High medium supplemented with 10% FBS (Atlanta). Human bronchial epithelial cells (BEC) were cultured in Airway Epithelial Cell Basal Medium with the Bronchial Epithelial cell growth kit (ATCC) according to manufacturer's protocol and used at passages 3-5.
# (§2) Cells were seeded at 5×10^3 concentration in 96 well plates and treated with test compounds or DMSO (0.001-10 μM) for 72 hours. Culture medium was removed and cells were stained with crystal violet solution (Sigma-Aldrich) for 15 minutes while shaking at room temperature. Crystal violet was then removed and cells were repeatedly washed in water. Attached cells stained with crystal violet were dried and then resuspended in 10% acetic acid. Absorbance was measured at 562 nm. The intensity of staining corresponded directly to the number of live cells.
# A549 [2] = assay: Cytoxicity / crystal violet staining, A549; details: average of triplicates, % of apoptotic cells vs DMSO controls, N.A. = not active at 10 μM
# Protocol: as §1, §2
# A549 cells = assay: Invasion chambers (Transwell, Matrigel); details: serum chemoattractants, compared to untreated cells
# Protocol: The invasion of A549 cells was measured using Transwell chambers (Chemicon, Millipore, Calif.) according to the manufacturer's protocol. Briefly, A549 cells were treated with test compounds at 1 μM in 500 μl of DMEM medium without FBS for 24 hours. Medium in the upper chamber was serum-free while medium in the lower chamber contained 10% FBS as a source of chemoattractants. Cells that passed through the Matrigel-coated membrane were stained and photographed after 24 hours of incubation. Absorbance was measured at 562 nm by ELISA reader after dissolving of stained cells in 10% acetic acid.
# A549 [3] = assay: Cytoxicity / crystal violet staining, A549; details: Homo sapiens, 0.01-5 μM for 72 hours, n=4
# PC3 [4] = assay: Cytoxicity / crystal violet staining, PC3; details: Homo sapiens, PC-3; 0.01-5 μM for 72 hours, n=4
# PC3 cells = assay: Immunostaining of α-tubulin and β-actin in PC3 cells; details: Compound 6 1 μM or docetaxel 20 nM, 24 hours
# Protocol: Immunofluorescence and immunostaining on cell lines and tumor samples were performed as described in Wegiel et al, Cancer research 2013, 73(23), 7009-21. Anti-mouse STMN1, anti-P (Ser10)-Histone H3, and α-tubulin antibody were obtained from Cell Signaling. β-actin antibody was obtained from Sigma-Aldrich. […] After immunofluorescence staining, the number of P-Histone H3 was quantified per field of view at 40× magnification using Zeiss Axiovert Microscope.
SMILES,Cytoxicity (% cell killing at 10 μM) PC3 (PC3 [1]),Cytoxicity (% cell killing at 10 μM) A549 (A549 [2]),invasion / migration through matrigel coated chambers (A549 cells),IC50 (A549 [3]),IC50 (PC3 [4]),microtubule stability (α-tubulin immunostaining) (PC3 cells)
O=C1/C(=C/c2ccc3[nH]ccc3c2)CCc2ccccc21 [Compound 1],55%,47%,–,–,–,–
Cn1ccc2cc(/C=C3\CCc4ccccc4C3=O)ccc21 [Compound 2],52%,56%,–,–,–,–
CCn1ccc2cc(/C=C3\CCc4ccccc4C3=O)ccc21 [Compound 3],58%,52%,–,–,–,–
Cn1ccc2ccc(/C=C3\CCc4ccccc4C3=O)cc21 [Compound 4],61%,53%,–,–,–,–
"O=C1/C(=C/c2ccc3[nH]ccc3c2)CCc2ccc(F)cc21 [Compound 7, (2E)-7-fluoro-2-(1H-indol-5-ylmethylidene)-1,2,3,4-tetrahydronaphthalen-1-one]",45%,43%,accelerated migration,271 nM,449 nM,–
"CCn1ccc2cc(/C=C3\CCc4ccc(F)cc4C3=O)ccc21 [Compound 8, (2E)-2-[(1-ethyl-1H-indol-5-yl)methylidene]-7-fluoro-1,2,3,4-tetrahydronaphthalen-1-one]",33%,38%,strongly inhibited invasion,113 nM,106 nM,–
CC(=O)n1ccc2cc(/C=C3\CCc4ccc(F)cc4C3=O)ccc21 [Compound 9],24%,28%,–,–,–,–
CCn1ccc2cc(/C=C3\CCc4ccc(OC)cc4C3=O)ccc21 [Compound 12],49%,20%,–,–,–,–
COc1ccc2c(c1)C(=O)/C(=C/c1ccc3[nH]ccc3c1)CC2 [Compound 13],55%,5%,–,–,–,–
COc1ccc2c(c1)C(=O)/C(=C/c1ccc3c(ccn3C)c1)CC2 [Compound 14],18%,21%,–,–,–,–
COc1ccc2c(c1)C(=O)/C(=C/c1ccc3ccn(C)c3c1)CC2 [Compound 15],42%,24%,–,–,–,–
COc1cc2c(cc1OC)C(=O)/C(=C/c1ccc3c(ccn3C)c1)CC2 [Compound 16],31%,–,–,–,–,–
CCn1ccc2cc(/C=C3\CCc4cc(OC)c(OC)cc4C3=O)ccc21 [Compound 17],45%,19%,–,–,–,–
COc1cc2c(cc1OC)C(=O)/C(=C/c1ccc3ccn(C)c3c1)CC2 [Compound 18],55%,41%,–,–,–,–
O=C1/C(=C/c2ccc3[nH]ccc3c2)CCc2ccc(Br)cc21 [Compound 19],42%,16%,–,–,–,–
Cn1ccc2cc(/C=C3\CCc4ccc(Br)cc4C3=O)ccc21 [Compound 20],47%,21%,–,–,–,–
Cn1ccc2ccc(/C=C3\CCc4ccc(Br)cc4C3=O)cc21 [Compound 21],39%,26%,–,–,–,–
"CC(=O)O[C@@]12CO[C@@H]1C[C@H](O)[C@@]1(C)C(=O)[C@H](O)C3=C(C)[C@@H](OC(=O)[C@H](O)[C@@H](NC(=O)OC(C)(C)C)c4ccccc4)C[C@@](O)([C@@H](OC(=O)c4ccccc4)[C@H]21)C3(C)C [docetaxel, reference compound]",–,–,–,–,–,stabilization of microtubules
